Among the data in patent publication US20100093696A1, “2-AMINO PYRIMIDINE COMPOUNDS” (Pfizer Inc., priority 2007, published 2010) are inhibition values, retold here.

Counter-ions that a name gives are not always drawn.

This assay addresses HSP-90 (Homo sapiens, UniProt P07900). As to the kind of experiment: HSP-90 SPA (scintillation proximity assay) competition binding assay, tritiated Compound A radioligand (G2). The following applies: read-out: (G2): % inhibition.
In the case of `CCOC(=O)N1Cc2nc(N)nc(Oc3ccc(Cl)cc3Br)c2C1` [Example 23, ethyl 2-amino-4-(2-bromo-4-chlorophenoxy)-5,7-dihydro-6H-pyrrolo[34-d]pyrimidine-6-carboxylate], the inhibition at 10 µM turned out to be 0%.

For `CCOC(=O)N1Cc2nc(N)nc(Oc3cc(C)c(Cl)c(C)c3)c2C1` [Example 25, ethyl 2-amino-4-(4-chloro-35-dimethylphenoxy)-5,7-dihydro-6H-pyrrolo[34-d]pyrimidine-6-carboxylate hydrochloride], the inhibition at 10 µM was 0%.

For the compound `CCOC(=O)N1Cc2nc(N)nc(Oc3ccc(Cl)cc3OC)c2C1` [Example 27, ethyl 2-amino-4-(4-chloro-2-methoxyphenoxy)-5,7-dihydro-6H-pyrrolo[3,4-d]pyrimidine-6-carboxylate], the inhibition at 10 µM turned out to be 0%.

As to `CCOC(=O)N1Cc2nc(N)nc(-n3ccc4ccc(F)cc43)c2C1` [Example 46, ethyl 2-amino-4-(6-fluoro-1H-indol-1-yl)-5,7-dihydro-6H-pyrrolo[3,4-d]pyrimidine-6-carboxylate], the inhibition at 10 µM amounted to 0%.
